Measured values: USRE47689E1, “Compounds for treating spinal muscular atrophy” (PTC Therapeutics, Inc., priority 2011, dated 2019)
Like-named read-outs stand apart in the source and are kept apart here.

Columns and labels:
Smn protein = Smn protein assay in cultured cells (SMN HTRF); assay type: cell-based, human; settings: 48 hours; for maximum fold (Fold) increase of Smn protein: SMA patient fibroblast cells, 7-point concentration data, fold increase relative to vehicle control (SMN HTRF); for EC1.5x (concentration giving 1.5-fold Smn protein increase): SMA Type 1 patient fibroblast cells (GM03813), 7-point concentration curve, SMN HTRF, concentration producing 1.5 times Smn protein vs DMSO vehicle control, read-out: EC1.5x for Smn protein expression
How it was run: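 Smn in SMA fibroblast lysates, measured by anti-SMN HTRF after 48 h compound exposure; EC1.5x from fold change over vehicle.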

[1] = system: SMN2 minigene (full length SMN2 minigene mRNA containing SMN2 exon 7); experiment: SMN2 minigene mRNA splicing RT-qPCR assay in cultured cells; assay type: cell-based, human; settings: Homo sapiens, HEK293-H, read-out: EC1.5x for production of full length SMN2 mRNA
How it was run: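 Full-length SMN2 minigene mRNA (exon 7 included), minigene-specific and not endogenous SMN, quantified by RT-qPCR multiplexed with GAPDH in stably transfected HEK293H cells after 24 h compound exposure at 37° C. Abundance from efficiency-corrected Ct, normalized to GAPDH and vehicle; EC1.5x reported as star bins.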

[2] = HEK293H cells stably transfected with SMN2-A minigene, 24 hours, 7-point concentration curve, 1.5-fold relative to vehicle-treated cells

Row | melting point | Compound | maximum fold (Fold) increase of Smn protein (Smn protein) | EC (1.5-fold) [1, 2] [µM] | EC1.5x (concentration giving 1.5-fold Smn protein increase) (Smn protein) [nM] | EC (1.5-fold) ([1]; 24 h) [µM]
1 | 202 to 206 °C | O=c1oc2cc(N3CCNCC3)ccc2cc1-c1cc(F)cc(F)c1 [Compound 291, 3-(3,5-difluorophenyl)-7-(piperazin-1-yl)-2H-chromen-2-one] | * (maximum fold increase of ≤1.2) | 0.3 to 1 |  | 
2 | 185 to 188 °C | CN(C)CCN(C)c1ccc2cc(-c3cn4ccsc4n3)c(=O)oc2c1 [Compound 202, 7-{[2-(dimethylamino)ethyl](methyl)amino}-3-(imidazo[2,1-b][1,3]thiazol-6-yl)-2H-chromen-2-one] | ** (fold increase between >1.2 and ≤1.35) | 0.3 to 1 |  | 
3 | 170 to 173 °C | O=c1oc2cc(N3CCCNCC3)ccc2cc1-c1cn2cccc(Cl)c2n1 [Compound 212, 3-(8-chloroimidazo[1,2-a]pyridin-2-yl)-7-(1,4-diazepan-1-yl)-2H-chromen-2-one] | **** (fold increase between >1.5 and ≤1.65) | 0.3 to 1 | 300 to 1000 | 
4 | 155 to 159 °C | Cc1cn2cc(-c3cc4ccc(CCCNCc5ccncc5)cc4oc3=O)nc2c(C)n1 [Compound 936, 3-(6,8-dimethylimidazo[1,2-a]pyrazin-2-yl)-7-{3-[(pyridin-4-ylmethyl)amino]propyl}-2H-chromen-2-one] | ***** (fold increase >1.65) | < 0.1 | < 300 | 
5 | 299 °C (dec.) | Cc1cccn2cc(-c3cc4ccc(N5CCN[C@H](C)C5)cc4oc3=O)nc12 [Compound 247, 3-(8-methylimidazo[1,2-a]pyridin-2-yl)-7-[(3R)-3-methylpiperazin-1-yl]-2H-chromen-2-one] | ** (fold increase between >1.2 and ≤1.35) | 0.1 to 0.3 |  | 
6 | 234 to 236 °C | C[C@@H]1CN(c2ccc3cc(-c4cnc5ccccc5n4)c(=O)oc3c2)C[C@H](C)N1 [Compound 461, 7-[(3R,5S)-3,5-dimethylpiperazin-1-yl]-3-(quinoxalin-2-yl)-2H-chromen-2-one] | * (maximum fold increase of ≤1.2) | 3 to 30 |  | 
7 | 211 to 215 °C | Cc1cn2cc(-c3cc4ccc(N5CCN(C)[C@@H](C)C5)cc4oc3=O)nc2c(C)n1 [Compound 672, 3-(6,8-dimethylimidazo[1,2-a]pyrazin-2-yl)-7-[(3S)-3,4-dimethylpiperazin-1-yl]-2H-chromen-2-one] | **** (fold increase between >1.5 and ≤1.65) | < 0.1 | < 300 | 
8 | 216 to 220 °C | CC1(C)CN(c2ccc3cc(-c4cn5cccc(Cl)c5n4)c(=O)oc3c2)CCN1 [Compound 249, 3-(8-chloroimidazo[1,2-a]pyridin-2-yl)-7-(3,3-dimethylpiperazin-1-yl)-2H-chromen-2-one] | ** (fold increase between >1.2 and ≤1.35) | 0.3 to 1 |  | 
9 | 275 to 284 °C | Cc1cc(F)c2nc(-c3cc4ccc(N5CCNC(C)(C)C5)cc4oc3=O)cn2c1 [Compound 426, 7-(3,3-dimethylpiperazin-1-yl)-3-(8-fluoro-6-methylimidazo[1,2-a]pyridin-2-yl)-2H-chromen-2-one] | *** (fold increase between >1.35 and ≤1.5) | 0.1 to 0.3 |  | 
10 | 233 to 240 °C | Cc1cc(F)c2nc(-c3cc4ccc(N5CCCN(C)CC5)cc4oc3=O)cn2c1 [Compound 355, 3-(8-fluoro-6-methylimidazo[1,2-a]pyridin-2-yl)-7-(4-methyl-1,4-diazepan-1-yl)-2H-chromen-2-one] | **** (fold increase between >1.5 and ≤1.65) | < 0.1 | 300 to 1000 | 
11 | 212 to 214 °C | Cc1cn2cc(-c3cc4ccc(N5CCN(C)CC5)cc4oc3=O)cc2cn1 [Compound 590, 7-(4-methylpiperazin-1-yl)-3-(3-methylpyrrolo[1,2-a]pyrazin-7-yl)-2H-chromen-2-one] | ***** (fold increase >1.65) | < 0.1 | < 300 | 
12 | 247 to 249 °C | O=c1oc2cc(N3CCCNCC3)ccc2cc1-c1cn2ccncc2n1 [Compound 454, 7-(1,4-diazepan-1-yl)-3-(imidazo[1,2-a]pyrazin-2-yl)-2H-chromen-2-one] | *** (fold increase between >1.35 and ≤1.5) | < 0.1 | 3000 to 10000 | 
13 | 186 to 190 °C | CC(CO)NCc1ccc2cc(-c3nc4c(Cl)cccc4s3)c(=O)oc2c1 (stereo not shown) [Compound 270, 3-(4-chloro-1,3-benzothiazol-2-yl)-7-{[(1-hydroxypropan-2-yl)amino]methyl}-2H-chromen-2-one] | ** (fold increase between >1.2 and ≤1.35) | 1 to 3 |  | 
14 | 145 to 148 °C | Cc1cn2cc(-c3cc4ccc(N5CCN6CCCCC6C5)cc4oc3=O)cc2c(C)n1 (stereo not shown) [Compound 683, 3-(1,3-dimethylpyrrolo[1,2-a]pyrazin-7-yl)-7-(octahydro-2H-pyrido[1,2-a]pyrazin-2-yl)-2H-chromen-2-one] | **** (fold increase between >1.5 and ≤1.65) | < 0.1 | < 300 | 

The next lines start with the molecule.

Row | Compound | melting point | maximum fold (Fold) increase of Smn protein (Smn protein) | EC (1.5-fold) [1, 2] [µM] | EC1.5x (concentration giving 1.5-fold Smn protein increase) (Smn protein) [nM] | EC (1.5-fold) ([1]; 24 h) [µM]
15 | CN1CCCN(c2ccc3cc(-c4cn5cc(C6CC6)cc(F)c5n4)c(=O)oc3c2)CC1 [Compound 499, 3-(6-cyclopropyl-8-fluoroimidazo[1,2-a]pyridin-2-yl)-7-(4-methyl-1,4-diazepan-1-yl)-2H-chromen-2-one] | 234 to 244 °C | * (maximum fold increase of ≤1.2) | 0.3 to 1 |  | 
16 | O=c1oc2cc(CO)cc(F)c2cc1-c1cn2ccsc2n1 [Compound 397, 5-fluoro-7-(hydroxymethyl)-3-(imidazo[2,1-b][1,3]thiazol-6-yl)-2H-chromen-2-one] | 278 to 282 °C | * (maximum fold increase of ≤1.2) | 3 to 30 |  | 
17 | Cc1ccn2cc(-c3cc4ccc(N(C)CCN(C)C)cc4oc3=O)nc2n1 [Compound 226, 7-{[2-(dimethylamino)ethyl](methyl)amino}-3-(7-methylimidazo[1,2-a]pyrimidin-2-yl)-2H-chromen-2-one] | 188 to 191 °C | * (maximum fold increase of ≤1.2) | 3 to 30 |  | 
18 | C[C@H]1CN(c2ccc3cc(-c4ccccn4)c(=O)oc3c2)CCN1 [Compound 444, 7-[(3S)-3-methylpiperazin-1-yl]-3-(pyridin-2-yl)-2H-chromen-2-one] | 145 to 147 °C | * (maximum fold increase of ≤1.2) |  |  | 3 to 30
19 | Cc1cn2cc(-c3cc4ccc(CCN(C)C)cc4oc3=O)nc2c(C)n1 [Compound 864, 7-[2-(dimethylamino)ethyl]-3-(6,8-dimethylimidazo[1,2-a]pyrazin-2-yl)-2H-chromen-2-one] | 219 to 223 °C | ***** (fold increase >1.65) | < 0.1 | < 300 | 
20 | COc1cccn2cc(-c3cc4ccc(N5CCNCC5)cc4oc3=O)nc12 [Compound 402, 3-(8-methoxyimidazo[1,2-a]pyridin-2-yl)-7-(piperazin-1-yl)-2H-chromen-2-one] | 236 to 240 °C | * (maximum fold increase of ≤1.2) | 3 to 30 |  | 
21 | CN(C)Cc1ccc2cc(-c3nc4ccccc4s3)c(=O)oc2c1 [Compound 13, 3-(1,3-benzothiazol-2-yl)-7-[(dimethylamino)methyl]-2H-chromen-2-one] | 171 to 176 °C | ** (fold increase between >1.2 and ≤1.35) | 1 to 3 |  | 
22 | Cc1cn2cc(-c3cc4ccc(CN5CCNCC5)cc4oc3=O)nc2c(C)n1 [Compound 848, 3-(6,8-dimethylimidazo[1,2-a]pyrazin-2-yl)-7-(piperazin-1-ylmethyl)-2H-chromen-2-one] | 189 to 195 °C | ***** (fold increase >1.65) | < 0.1 | 300 to 1000 | 
23 | Cc1nc(Cl)cn2cc(-c3cc4ccc(N5CCN(C)[C@H](C)C5)cc4oc3=O)nc12 [Compound 726, 3-(6-chloro-8-methylimidazo[1,2-a]pyrazin-2-yl)-7-[(3R)-3,4-dimethylpiperazin-1-yl]-2H-chromen-2-one] | 250 to 252 °C | **** (fold increase between >1.5 and ≤1.65) | < 0.1 | 300 to 1000 | 
24 | CC(C)NCc1ccc2cc(-c3nc4c(Cl)cccc4s3)c(=O)oc2c1 [Compound 10, 3-(4-chloro-1,3-benzothiazol-2-yl)-7-[(propan-2-ylamino)methyl]-2H-chromen-2-one] | 157 to 161 °C | * (maximum fold increase of ≤1.2) | 0.3 to 1 |  | 
